Key:
[1] = system: perennial ryegrass, fine fescue, Kentucky bluegrass, tall fescue, zoysiagrass, St. Augustinegrass, centipedegrass; conditions: cited from earlier work
[2] = system: weeds; conditions: mesotrione applied in a granular composition; cited from earlier work
[3] = system: Bermudagrass, Centipedegrass, St. Augustinegrass, Zoysiagrass; assay: Subsequent testing of spray applications on warm-season turfgrasses; format: in vivo; conditions: Zoysiagrass and mixtures
From the text: (§1) Accordingly new treatments using aminocyclopyrachlor and its derivatives are needed for successful selective weed control in turf comprising warm-season turfgrasses.

[4] = system: cool-season turfgrasses; assay: Subsequent testing of spray applications on cool-season turfgrasses; format: in vivo; conditions: most cool-season turfgrasses
From the text: as §1

[5] = system: Bermudagrass; conditions: postemergence spray application, 31 g ai/ha; cited from earlier work

SMILES	damage/phytotoxicity to turfgrass varieties, formulations in spray form ([1]; mesotrione applied as a liquid in spray form)	phytotoxicity to turfgrasses, granular composition ([1]; mesotrione applied in a granular composition)	weed control, granular composition [2]	phytotoxicity of spray applications to warm-season turfgrasses [3]	safety of spray applications to cool-season turfgrasses [4]	injury to Bermudagrass [5] [%]
CS(=O)(=O)c1ccc(C(=O)C2C(=O)CCCC2=O)c([N+](=O)[O-])c1 [mesotrione]	unacceptable levels of damage/phytotoxicity	reduced to insignificant levels	good weed control			
COC(=O)c1nc(C2CC2)nc(N)c1Cl [Compound 1, methyl 6-amino-5-chloro-2-cyclopropyl-4-pyrimidinecarboxylate]				unacceptable phytotoxicity	sufficient safety	60

— US20110059848A1, “GRANULAR TURF SAFE HERBICIDAL COMPOSITIONS” (E. I. DU PONT DE NEMOURS AND COMPANY, priority 2007, published 2011)
